Experimental data as given in patent publication US20210094973A1, “HETEROCYCLIC COMPOUNDS” (Hoffmann-La Roche Inc., priority 2019, published 2021).

Target: T1, MAGL (Homo sapiens, UniProt Q99685)
T1 sequence (Q99685 1-303): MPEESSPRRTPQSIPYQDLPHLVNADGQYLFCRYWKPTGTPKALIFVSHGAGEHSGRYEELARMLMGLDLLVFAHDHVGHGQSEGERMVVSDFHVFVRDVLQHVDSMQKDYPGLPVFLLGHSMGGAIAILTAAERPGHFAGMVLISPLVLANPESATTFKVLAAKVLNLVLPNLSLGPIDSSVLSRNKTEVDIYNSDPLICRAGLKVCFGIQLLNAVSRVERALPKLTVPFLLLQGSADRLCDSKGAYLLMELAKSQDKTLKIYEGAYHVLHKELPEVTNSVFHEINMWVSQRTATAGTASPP
Experiment: 2-AG assay (MAGL inhibitory activity, hydrolysis of 2-arachidonoylglycerol followed by mass spectrometry)
Assay type: biochemical
Conditions: 15 min preincubation at RT, 8 μM 2-arachidonoylglycerol, 30 min at RT, arachidonic acid by MS
Experimental: Compounds were profiled for MAGL inhibitory activity by determining the enzymatic activity by following the hydrolysis of the natural substrate 2-arachidonoylglycerol (2-AG) resulting in arachidonic acid, which can be followed by mass spectrometry. This assay is hereinafter abbreviated “2-AG assay”.
The 2-AG assay was carried out in 384 well assay plates (PP, Greiner Cat #784201) in a total volume of 20 μL. Compound dilutions were made in 100% DMSO (VWR Chemicals 23500.297) in a polypropylene plate in 3-fold dilution steps to give a final concentration range in the assay from 12.5 μM to […]. 0.25 μL compound dilutions (100% DMSO) were added to 9 μL MAGL in assay buffer (50 mM TRIS (GIBCO, 15567-027), 1 mM EDTA (Fluka, 03690-100 mL), 0.01% (v/v) Tween. After shaking, the plate was incubated for 15 min at RT. To start the reaction, 10 μL 2-arachidonoylglycerol in assay buffer was added. The final concentrations in the assay was […] and 8 μM 2-arachidonoylglyerol. After shaking and 30 min incubation at RT, the reaction was quenched by the addition of 40 μL of ACN containing 4 μM of d8-arachidonic acid. The amount of arachidonic acid was traced by an online SPE system (Agilent Rapidfire) coupled to a triple quadrupole mass spectrometer (Agilent 6460). A C18 SPE cartridge (G9205A) was used in an ACN/water liquid setup. The mass spectrometer was operated in negative electrospray mode following the mass transitions 303.1→259.1 for arachidonic acid and 311.1→267.0 for d8-arachidonic acid. The activity of the compounds was calculated based on the ratio of intensities [arachidonic acid/d8-arachidonic acid].

Compound	IC50
O=C1CO[C@H]2CCN(C(=O)N3CC(c4ccc(C5CCOC5)cc4)C3)C[C@H]2N1 (single isomer, unassigned) [Example 1, (4aR,8aS)-6-[3-[4-[(3R or S)-Tetrahydrofuran-3-yl]phenyl]azetidine-1-carbonyl]-4,4a,5,7,8,8a-hexahydropyrido[4,3-b][1,4]oxazin-3-one]	33.1 nM
O=C1CO[C@H]2CCN(C(=O)N3CC(c4ccc(C5CCOC5)cc4)C3)C[C@H]2N1 (single isomer, unassigned) [Example 2, (4aR,8aS)-6-[3-[4-[(3S or R)-Tetrahydrofuran-3-yl]phenyl]azetidine-1-carbonyl]-4,4a,5,7,8,8a-hexahydropyrido[4,3-b][1,4]oxazin-3-one]	42 nM
CC1C(OCc2c(F)cccc2C(F)(F)F)CN1C(=O)N1CC[C@@H]2OCC(=O)N[C@@H]2C1 (single isomer, unassigned) [Example 27]	18.8 nM
CC1C(OCc2c(F)cccc2C(F)(F)F)CN1C(=O)N1CC[C@@H]2OCC(=O)N[C@@H]2C1 (single isomer, unassigned) [Example 28]	342 nM
CC1C(OCc2c(F)cccc2C(F)(F)F)CN1C(=O)N1CC[C@@H]2OCC(=O)N[C@@H]2C1 (single isomer, unassigned) [Example 29]	406 nM
O=C1CO[C@H]2CCN(C(=O)N3CC(c4ccc(OC5CC(F)(F)C5)cc4)C3)C[C@H]2N1 [Example 3, (4aR,8aS)-6-[3-[4-(3,3-Difluorocyclobutoxy)phenyl]azetidine-1-carbonyl]-4,4a,5,7,8,8a-hexahydropyrido[4,3-b][1,4]oxazin-3-one]	4.1 nM
CC(C)Oc1ccc(C2CN(C(=O)N3CC[C@@H]4OCC(=O)N[C@@H]4C3)C2)cc1 [Example 4, (4aR,8aS)-6-[3-(4-Isopropoxyphenyl)azetidine-1-carbonyl]-4,4a,5,7,8,8a-hexahydropyrido[4,3-b][1,4]oxazin-3-one]	7.1 nM
O=C1CO[C@H]2CCN(C(=O)N3CC(c4ccc(C5CCOCC5)cc4)C3)C[C@H]2N1 [Example 5, (4aR,8aS)-6-[3-(4-Tetrahydropyran-4-ylphenyl)azetidine-1-carbonyl]-4,4a,5,7,8,8a-hexahydropyrido[4,3-b][1,4]oxazin-3-one]	6 nM
O=C1CO[C@H]2CCN(C(=O)N3CC(c4ccc(C5CC(F)(F)C5)cc4)C3)C[C@H]2N1 [Example 6, (4aR,8aS)-6-[3-[4-(3,3-Difluorocyclobutyl)phenyl]azetidine-1-carbonyl]-4,4a,5,7,8,8a-hexahydropyrido[4,3-b][1,4]oxazin-3-one]	2.9 nM
CC(C)COc1ccc(C2CN(C(=O)N3CC[C@@H]4OCC(=O)N[C@@H]4C3)C2)cc1 [Example 11, (4aR,8aS)-6-(3-(4-Isobutoxyphenyl)azetidine-1-carbonyl)hexahydro-2H-pyrido[4,3-b][1,4]oxazin-3(4H)-one]	1.5 nM
CC(C)(Oc1ccc(C2CN(C(=O)N3CC[C@@H]4OCC(=O)N[C@@H]4C3)C2)cc1)C(F)(F)F [Example 12, (4aR,8aS)-6-[3-[4-(2,2,2-Trifluoro-1,1-dimethyl-ethoxy)phenyl]azetidine-1-carbonyl]-4,4a,5,7,8,8a-hexahydropyrido[4,3-b][1,4]oxazin-3-one]	0.3 nM
O=C1CO[C@H]2CCN(C(=O)N3CC(c4ccc(OC5CCCC5)cc4)C3)C[C@H]2N1 [Example 13, (4aR,8aS)-6-(3-(4-(Cyclopentyloxy)phenyl)azetidine-1-carbonyl)hexahydro-2H-pyrido[4,3-b][1,4]oxazin-3(4H)-one]	0.6 nM
O=C1CO[C@H]2CCN(C(=O)N3CC(c4ccc(OCC5CC5)cc4)C3)C[C@H]2N1 [Example 15, (4aR,8aS)-6-(3-(4-(Cyclopropylmethoxy)phenyl)azetidine-1-carbonyl)hexahydro-2H-pyrido[4,3-b][1,4]oxazin-3(4H)-one]	8.7 nM
O=C1CO[C@H]2CCN(C(=O)N3CC(c4cccc(OC(F)(F)F)c4)C3)C[C@H]2N1 [Example 19, (4aR,8aS)-6-(3-(3-(Trifluoromethoxy)phenyl)azetidine-1-carbonyl)hexahydro-2H-pyrido[4,3-b][1,4]oxazin-3(4H)-one]	44.1 nM
O=C1CO[C@H]2CCN(C(=O)N3CCC(c4ccn(-c5ccc(F)cc5)n4)CC3)C[C@H]2N1 [Example 20, (4aR,8aS)-6-(4-(1-(4-Fluorophenyl)-1H-pyrazol-3-yl)piperidine-1-carbonyl)hexahydro-2H-pyrido[4,3-b][1,4]oxazin-3(4H)-one]	147 nM

Other lines, results leading:

IC50	Compound
9.1 nM	O=C1CO[C@H]2CCN(C(=O)N3CC(c4nsc(-c5ccc(Cl)cc5Cl)n4)C3)C[C@H]2N1 [Example 7, (4aR,8aS)-6-[3-[5-(2,4-Dichlorophenyl)-1,2,4-thiadiazol-3-yl]azetidine-1-carbonyl]-4,4a,5,7,8,8a-hexahydropyrido[4,3-b][1,4]oxazin-3-one]
38.8 nM	O=C1CO[C@H]2CCN(C(=O)N3CC(c4cn(-c5ccc(Cl)cc5Cl)cn4)C3)C[C@H]2N1 [Example 8, (4aR,8aS)-6-[3-[1-(2,4-Dichlorophenyl)imidazol-4-yl]azetidine-1-carbonyl]-4,4a,5,7,8,8a-hexahydropyrido[4,3-b][1,4]oxazin-3-one]
23.5 nM	O=C1CO[C@H]2CCN(C(=O)N3CC(c4nc(-c5ccc(Cl)cc5C(F)(F)F)no4)C3)C[C@H]2N1 [Example 9, (4aR,8aS)-6-[3-[3-[4-Chloro-2-(trifluoromethyl)phenyl]-1,2,4-oxadiazol-5-yl]azetidine-1-carbonyl]-4,4a,5,7,8,8a-hexahydropyrido[4,3-b][1,4]oxazin-3-one]
6 nM	CC1(C)CCc2cc(C3CN(C(=O)N4CC[C@@H]5OCC(=O)N[C@@H]5C4)C3)ccc2O1 [Example 10, (4aR,8aS)-6-(3-(2,2-Dimethylchroman-6-yl)azetidine-1-carbonyl)hexahydro-2H-pyrido[4,3-b][1,4]oxazin-3(4H)-one]
26.4 nM	CC1(C)CCOc2ccc(C3CN(C(=O)N4CC[C@@H]5OCC(=O)N[C@@H]5C4)C3)cc21 [Example 14, (4aR,8aS)-6-(3-(4,4-Dimethylchroman-6-yl)azetidine-1-carbonyl)hexahydro-2H-pyrido[4,3-b][1,4]oxazin-3(4H)-one]
24.5 nM	O=C1CO[C@H]2CCN(C(=O)N3CC(c4nc(-c5ccc(Cl)cc5Cl)no4)C3)C[C@H]2N1 [Example 16, (4aR,8aS)-6-[3-[3-(2,4-Dichlorophenyl)-1,2,4-oxadiazol-5-yl]azetidine-1-carbonyl]-4,4a,5,7,8,8a-hexahydropyrido[4,3-b][1,4]oxazin-3-one]
168 nM	Cn1ncc2cc(C3CN(C(=O)N4CC[C@@H]5OCC(=O)N[C@@H]5C4)C3)ccc21 [Example 17, (4aR,8aS)-6-(3-(1-Methyl-1H-indazol-5-yl)azetidine-1-carbonyl)hexahydro-2H-pyrido[4,3-b][1,4]oxazin-3(4H)-one]
39.2 nM	O=C1CO[C@H]2CCN(C(=O)N3CC(c4noc(-c5ccc(Cl)cc5Cl)n4)C3)C[C@H]2N1 [Example 18, (4aR,8aS)-6-(3-(5-(2,4-Dichlorophenyl)-1,2,4-oxadiazol-3-yl)azetidine-1-carbonyl)hexahydro-2H-pyrido[4,3-b][1,4]oxazin-3(4H)-one]
